Consider 2 compounds from ChEMBL document CHEMBL5257097, “An Isomer of Galidesivir That Potently Inhibits Influenza Viruses and Members of the Bunyavirales Order” (ACS Med Chem Lett, 2023).

For one data set, the system named is Sudan ebolavirus. Kind of data set: Antiviral activity against SUDV infected in human HeLa cells assessed as reduction in viral cytopathic effect. Type of data set: functional, organism-based. (Protection from cytopathic effect is a common read-out in antiviral testing.)
In another data set the test system is Marburgvirus. Kind of data set: Antiviral activity against Marburg virus infected in human HeLa cells assessed as reduction in viral cytopathic effect. It counts as functional, organism-based. As to conditions: Orthomarburgvirus.
Data set [1] can be described thus: Cytotoxicity against African green monkey Vero cells infected with DENV-2 assessed as reduction in cell viability by visual assay. As to conditions: chlorocebus sabaeus. It counts as toxicity, cell-based.
The subject of a further data set is Influenza B virus. Put plainly: Antiviral activity against Influenza B virus infected in dog MDCK cells assessed as reduction in viral cytopathic effect. Type of data set: functional, organism-based.
Data set [2] in a line: Cytotoxicity against African green monkey Vero E6 cells infected with Oropouche virus assessed as reduction in cell viability by visual analysis. It counts as toxicity, cell-based, Vero C1008. As to conditions: chlorocebus sabaeus.
Data set [3] can be described thus: Selectivity index, ratio of CC50 for cytotoxicity against African green monkey Vero 76 cells infected with MERS-CoV assessed as reduction in cell viability by neutral red dye based analysis to EC50 for antiviral activity against MERS-CoV infected in African green monkey Vero 76 cells assessed as reduction in virus-induced cytopathic effect by neutral red dye based analysis. It counts as toxicity. As to conditions: read-out: Ratio CC50/EC50.

A short description of data set [4]: Cytotoxicity against dog MDCK cells infected with Influenza A virus H3N2 assessed as reduction in cell viability by neutral red dye based analysis. Type of data set: toxicity, Canis lupus familiaris.
Data set [5] is described as follows: Selectivity index, ratio of CC50 for cytotoxicity against African green monkey Vero 76 cells infected with MERS-CoV assessed as reduction in cell viability by visual analysis to EC50 for antiviral activity against MERS-CoV infected in African green monkey Vero 76 cells assessed as reduction in virus-induced cytopathic effect by visual analysis. Type of data set: toxicity, cell-based. As to conditions: read-out: Ratio CC50/EC50.

A short description of data set [6]: Selectivity index, ratio of CC50 for cytotoxicity against dog MDCK cells infected with Influenza B virus assessed as reduction in cell viability by visual analysis to EC50 for antiviral activity against Influenza B virus infected in dog MDCK cells assessed as inhibition of viral replication by visual analysis. Type of data set: toxicity, cell-based. As to conditions: read-out: Ratio CC50/EC50.

Data set [7] can be described thus: Cytotoxicity against African green monkey Vero E6 cells infected with Oropouche virus assessed as reduction in cell viability by neutral red dye based analysis. It counts as toxicity, Vero C1008. Conditions: chlorocebus sabaeus.
A short description of data set [8]: Cytotoxicity against African green monkey Vero cells infected with Pichinde virus assessed as reduction in cell viability by neutral red dye based analysis. Type of data set: toxicity. Conditions: chlorocebus sabaeus.
A short description of data set [9]: Toxicity in BALB/c mouse infected with A/Ca/04/09 (H1N1) assessed as animal mean day of death at 10 mg/kg, ip administered twice a day for 5 days (reference value: 9.3 +/-1.1 day ). Conditions: in vivo, 120 h, time 5 day. It counts as organism-based.
For data set [10], the system named is Pichinde virus. Kind of data set: Antiviral activity against Pichinde virus infected in African green monkey Vero cells assessed as inhibition of viral replication by visual analysis. Type of data set: functional, organism-based.
A short description of data set [11]: Cytotoxicity against dog MDCK cells infected with Influenza A virus H1N1 assessed as reduction in cell viability by neutral red dye based analysis. Type of data set: toxicity, Canis lupus familiaris.
A short description of data set [12]: Cytotoxicity against African green monkey Vero 76 cells infected with La Crosse virus assessed as reduction in cell viability by neutral red dye based analysis. It counts as toxicity. Conditions: chlorocebus sabaeus.
Data set [13] is described as follows: Selectivity index, ratio of CC50 for cytotoxicity against African green monkey Vero 76 cells infected with Punta Toro virus assessed as reduction in cell viability by visual analysis to EC50 for antiviral activity against Punta Toro virus infected in African green monkey Vero 76 cells assessed as reduction in viral replication by visual analysis. Type of data set: toxicity, cell-based. As to conditions: read-out: Ratio CC50/EC50.

The nature of data set [14]: Selectivity index, ratio of CC50 for cytotoxicity against African green monkey Vero cells infected with JUNV assessed as reduction in cell viability by visual analysis to EC50 for antiviral activity against JUNV infected in African green monkey Vero cells assessed as reduction in viral replication by visual analysis. It counts as toxicity, cell-based. As to conditions: read-out: Ratio CC50/EC50.

In the next data set the test system is Oropouche virus. Kind of data set: Antiviral activity against Oropouche virus infected in African green monkey Vero E6 cells assessed as inhibition of viral replication by visual analysis. Type of data set: functional, organism-based. As to conditions: Vero C1008.
The next data set relates to La Crosse virus. Kind of data set: Antiviral activity against La Crosse virus infected in African green monkey Vero E6 cells assessed as inhibition of viral replication by neutral red dye based analysis. It counts as functional, organism-based. As to conditions: Vero C1008.
Data set [15] in a line: Selectivity index, ratio of CC50 for cytotoxicity against African green monkey Vero E6 cells infected with Maporal virus assessed as reduction in cell viability to EC90 for antiviral activity against Maporal virus infected in African green monkey Vero E6 cells assessed as reduction in viral yield. Type of data set: toxicity, cell-based, Vero C1008.
A short description of data set [16]: Cytotoxicity against African green monkey Vero E6 cells infected with Severe fever with thrombocytopenia syndrome virus assessed as reduction in cell viability. Conditions: chlorocebus sabaeus. Type of data set: toxicity, cell-based, Vero C1008.
Data set [17] in a line: Selectivity index, ratio of CC50 for cytotoxicity against African green monkey Vero E6 cells infected with Heartland virus assessed as reduction in cell viability to EC90 for antiviral activity against Heartland virus infected in African green monkey Vero E6 cells assessed as reduction in viral yield. It counts as toxicity, cell-based, Vero C1008.
A further data set has as its system Influenza A virus. Put plainly: Antiviral activity against Influenza A virus H3N2 infected in dog MDCK cells assessed as reduction in virus yield measured after 3 days by visual analysis. It counts as functional. As to conditions: 72 h, time 3 day.
Data set [18] can be described thus: Selectivity index, ratio of CC50 for cytotoxicity against African green monkey Vero E6 cells infected with Severe fever with thrombocytopenia syndrome virus assessed as reduction in cell viability to EC90 for antiviral activity against Severe fever with thrombocytopenia syndrome virus infected in African green monkey Vero E6 cells assessed as reduction in viral replication. It counts as toxicity, cell-based, Vero C1008.

A short description of data set [19]: Cytotoxicity against dog MDCK cells infected with Influenza B virus assessed as reduction in cell viability by visual analysis. Type of data set: toxicity, cell-based, Canis lupus familiaris.
Data set [20] relates to Pichinde virus. Kind of data set: Antiviral activity against Pichinde virus infected in African green monkey Vero cells assessed as inhibition of viral replication by neutral red dye based analysis. Type of data set: functional, organism-based.
Data set [21] can be described thus: Cytotoxicity against dog MDCK cells infected with Influenza A virus H7N9 assessed as reduction in cell viability by neutral red dye based analysis. Type of data set: toxicity, Canis lupus familiaris.
A short description of data set [22]: Selectivity index, ratio of CC50 for cytotoxicity against African green monkey Vero cells infected with Pichinde virus assessed as reduction in cell viability by visual analysis to EC50 for antiviral activity against Pichinde virus infected in African green monkey Vero cells assessed as reduction in viral replication by visual analysis. As to conditions: read-out: Ratio CC50/EC50. It counts as toxicity, cell-based.

Data set [23] is described as follows: Toxicity in BALB/c mouse infected with influenza A/Ca/04/09 (H1N1) assessed as animal survival at 10 to 300 mg/kg, ip measured every day for 6 days. Type of data set: organism-based. Conditions: in vivo, 144 h, dose 10-300 mg/kg, time 6 day.
The next data set deals with Junin virus. Kind of data set: Antiviral activity against Junin virus infected in African green monkey Vero E6 cells assessed as inhibition of viral replication by visual analysis. It counts as functional, organism-based. As to conditions: Mammarenavirus juninense, Vero C1008.
The test system of another data set is Punta Toro virus. Kind of data set: Antiviral activity against Punta Toro virus infected in African green monkey Vero 76 cells assessed as inhibition of viral replication by visual analysis. Type of data set: functional, organism-based.
Data set [24] can be described thus: Cytotoxicity against African green monkey Vero E6 cells infected with JUNV assessed as reduction in cell viability by visual analysis. Conditions: chlorocebus sabaeus. Type of data set: toxicity, cell-based, Vero C1008.
Data set [25] in a line: Toxicity in BALB/c mouse infected with influenza A/Ca/04/09 (H1N1) assessed as mortality at 30 mg/kg, ip measured every day for 6 days. It counts as organism-based. As to conditions: in vivo, time 6 day, read-out: Activity.
Data set [26] is described as follows: Selectivity index, ratio of CC50 for cytotoxicity against dog MDCK cells infected with Influenza A virus H1N1 assessed as reduction in cell viability by neutral red dye based analysis to EC50 for antiviral activity against Influenza A virus H1N1 infected in dog MDCK cells assessed as inhibition of viral replication by neutral red dye based analysis. It counts as toxicity. Conditions: read-out: Ratio CC50/EC50.

The term pEC50 denotes the EC50 on a negative log10 scale, so that one unit is a factor of ten. By CC50 is commonly meant the concentration at which the toxic effect on the cells reaches its halfway point. The term EC90 denotes the point of the concentration-response curve where the effect stands at 90%.

Molecules are shown by their SMILES. pEC50: −log10 of the molar value.

As for `Nc1ncnc2c([C@@H]3N[C@H](CO)[C@@H](O)[C@H]3O)c[nH]c12` [GALIDESIVIR], the pEC50 was 5.52 with Sudan ebolavirus, 5.52 in the data set with Marburgvirus and 6.00 in the data set on Influenza B virus. For the same compound, in data set [1], the CC50 was over 100 µM.

As for `Nc1ncnn2c([C@@H]3N[C@H](CO)[C@@H](O)[C@H]3O)ccc12`, the CC50 came to 24 µM in data set [2]; 10 µM in data set [4]; 15 µM in data set [7]; 8.4 µM in data set [8]; 14 µM in data set [11]; 24 µM in [12]. Besides, the CC50 in [16] was determined as 11 µM; in [19], 12 µM; in data set [21], 30 µM; in [24], 12 µM. The selectivity ratio in data set [3] was determined as 15; in data set [5], 31; in data set [6], 38; in [13] it was 41; in [14] it was 22; in data set [15], 15. The selectivity ratio in data set [17] was found to be 97; in [18] it was 49; in data set [22] it was 42; in data set [26], 44. Moreover, the Time in [9] stood at 12 days. Also, the pEC50 in the data set with Pichinde virus [10] was 6.42; in the data set on Oropouche virus, 6.41; in the data set with La Crosse virus it was over 7.00; with Pichinde virus [20], 6.52; in the data set on Junin virus, 6.27; with Punta Toro virus it was 6.49. Also, in the data set with Influenza A virus, the EC90 is 0.25 µM. In addition, the Activity result in data set [23] was “Non-Toxic”. In addition, the mortality at 144 h in [25] was determined as 15%.
